“Also recorded” adds a separate entry of the source. Read-outs that look alike come from different tables or passages of the source.
Key:
[1] = target: Gpt (Escherichia coli, UniProt P0A9M5); assay: DRaCALA competition assay, Gpt; assay type: binding, E. coli; conditions: 20 µM Gpt, 2 nM hot ppGpp, 100 µM cold competitor
Experimental: The mixtures were incubated for 5 min at RT before spotting of 2 µl of the reaction mixtures onto nitrocellulose membranes. […] For competition assays, purified proteins at the specified concentrations were incubated with 2 nM [α-^32P]ppGpp or [α-^32P]pppGpp in the presence of 100 μM competitor nucleotides in binding buffer B. The reaction mixtures were incubated for 5 min at RT, 2 µl was spotted onto nitrocellulose membranes, and the values corresponding to the bound fractions were determined.

[2] = system: DnaG; conditions: ref Table S1 (12); cited from earlier work
[3] = system: RNAP /DksA; design: method as in Table S1 (14); conditions: ref Table S1 (14); cited from earlier work
[4] = target: T1, YgdH (Escherichia coli, UniProt P0ADR8); assay: DRaCALA competition assay, YgdH; assay type: binding, E. coli; conditions: 100 µM cold competitor; data not shown
[5] = system: RelA; design: method as in ref 36 (Table S1 ref 16); conditions: ref 36 (Table S1 ref 16); cited from earlier work
[6] = target: T1, YgdH; assay: DRaCALA binding and Kd determination, purified YgdH; design: species or system E. coli; conditions: 20 µM YgdH, binding buffer with 10 mM MgCl2, no EDTA
Experimental: For Kd measurements by DRaCALA, 2-fold serial dilutions from the highest possible concentrations of each purified protein were prepared in binding buffer B, and approximately 2 nM concentrations of α-^32P-labeled ppGpp, pppGpp, GTP, and GDP were added. The mixtures were incubated for 5 min at RT before spotting of 2 µl of the reaction mixtures onto nitrocellulose membranes. […] For competition assays, purified proteins at the specified concentrations were incubated with 2 nM [α-^32P]ppGpp or [α-^32P]pppGpp in the presence of 100 μM competitor nucleotides in binding buffer B. The reaction mixtures were incubated for 5 min at RT, 2 µl was spotted onto nitrocellulose membranes, and the values corresponding to the bound fractions were determined. EDTA was added at excess concentrations as specified for each case.

[7] = target: T1, YgdH; assay: TLC of YgdH binding reactions (degradation test); assay type: biochemical, E. coli; conditions: binding reactions analyzed by TLC
[8] = target: T2, Apt (Escherichia coli, UniProt P69503); assay: DRaCALA binding, purified Apt; design: species or system E. coli; conditions: up to 150 µM Apt
[9] = system: DnaG; design: method as in Table S1 (13); conditions: ref Table S1 (13); read-out: IC50, B. subtilis DnaG; cited from earlier work
[10] = target: T3, PurA (Escherichia coli, UniProt P0A7D4); conditions: cited from earlier work
[11] = target: TrmE (Escherichia coli, UniProt P25522); assay: In vitro cleavage assay (TLC), TrmE; assay type: biochemical, E. coli; conditions: 10 µM TrmE, buffer B, with 100 mM potassium where stated, 10 min
Experimental: (§1) The purified His6-MutT and His6-NudG proteins were tested for their relative levels of cleavage of ppGpp compared to those seen with their native substrates. For this, a 1 μM concentration of each protein and a 10 nM concentration of [α-^32P]ppGpp were used together with 100 μM concentrations of cold competitors [ppGpp, GTP, ATP, 8-oxo-(d)GTP, 2-hydroxyl-(d)ATP] or 50 mM EDTA in buffer B. The samples were incubated at 30°C for 10 min and for 1 h before the reactions were stopped by adding 50 mM EDTA. The cleavage products were resolved by TLC as described above. The purified His6-NadR and His6-TrmE proteins were tested for their cleavage of both GTP and ppGpp. For cleavage of GTP, 10 μM concentrations of His6-MBP, His6-TrmE, and 20 μM His6-NadR proteins were used with 2 nM [α-^32P]GTP and 100 μM cold GTP in buffer B. For cleavage of ppGpp, 10 μM concentrations of His6-TrmE, His6-MBP, and His6-NadR proteins were used with 10 nM [α-^32P]ppGpp in buffer B. Of note, for His6-TrmE, another reaction was also performed in buffer B supplemented with 100 mM KCl. The reactions were performed at RT for 10 min and were stopped by adding 17% formic acid. The cleavage products were resolved by TLC as described above.
(§2) A 20 μM concentration of each of purified proteins MutT, NudG, NadR, TrmE, and MBP (as a negative control) was incubated with 100 μM ppGpp in buffer B (containing 40 mM Tris [pH 7.5], 100 mM NaCl, and 10 mM MgCl2) for 20 min at room temperature. Samples were snap-frozen on dry ice and analyzed with UPLC-MS afterward. All samples and buffers were stored at −80°C, thawed on ice, and kept at 4°C during analysis. For the analysis, a UPLC-quadrupole time of flight (UPLC-qTOF) method (Waters) was used. […] The detection conditions were as follows: photodiode array detector (PDA), […] (evaluated at 260 nm); MS, ionization; electrospray ionization (ESI+), scan, 200 to 800 m/z with lock mass correction. […]

[12] = target: Hpt (Escherichia coli, UniProt P0A9M2); assay: DRaCALA competition assay, Hpt; assay type: binding, E. coli; conditions: 20 µM Hpt, 2 nM hot ppGpp, 100 µM cold competitor
Experimental: (§5) For Kd measurements by DRaCALA, 2-fold serial dilutions from the highest possible concentrations of each purified protein were prepared in binding buffer B, and approximately 2 nM concentrations of α-^32P-labeled ppGpp, pppGpp, GTP, and GDP were added. The mixtures were incubated for 5 min at RT before spotting of 2 µl of the reaction mixtures onto nitrocellulose membranes. The fractions of bound ligand and the apparent Kd values were calculated as previously described ([37]). For competition assays, purified proteins at the specified concentrations were incubated with 2 nM [α-^32P]ppGpp or [α-^32P]pppGpp in the presence of 100 μM competitor nucleotides in binding buffer B. The reaction mixtures were incubated for 5 min at RT, 2 µl was spotted onto nitrocellulose membranes, and the values corresponding to the bound fractions were determined. EDTA was added at excess concentrations as specified for each case.

[13] = target: YybT /GdpP; conditions: other bacteria, cited from earlier work
[14] = target: T3, PurA; assay: DRaCALA binding, purified PurA; design: species or system E. coli; conditions: PurA up to 150 µM
Experimental: as §5

[15] = target: T2, Apt; conditions: ref Table S1 (2); cited from earlier work
[16] = target: MutT (Escherichia coli, UniProt P08337); assay: In vitro cleavage assay (TLC), MutT; assay type: biochemical, E. coli; conditions: purified MutT, buffer B with 10 mM MgCl2, TLC
Experimental: as §1
(§3) A 20 μM concentration of each of purified proteins MutT, NudG, NadR, TrmE, and MBP (as a negative control) was incubated with 100 μM ppGpp in buffer B (containing 40 mM Tris [pH 7.5], 100 mM NaCl, and 10 mM MgCl2) for 20 min at room temperature. Samples were snap-frozen on dry ice and analyzed with UPLC-MS afterward. All samples and buffers were stored at −80°C, thawed on ice, and kept at 4°C during analysis. For the analysis, a UPLC-quadrupole time of flight (UPLC-qTOF) method (Waters) was used. Analysis conditions were as follows: column, zic-HILIC (Merck Millipore) (150 by 2.1 mm, […], gradient elution, flow rate set to 0.3 ml/min); mobile phase A, 10 mM ammonium acetate (pH 5); mobile phase B, 90% acetonitrile with 10 mM ammonium acetate (pH 5). The gradient was set up as follows: min 0 to 2, 80% B; min 2 to 16, 80% B to 50% B; hold until min 20; injection volume, 4 µl. The detection conditions were as follows: photodiode array detector (PDA), […] (evaluated at 260 nm); MS, ionization; electrospray ionization (ESI+), scan, 200 to 800 m/z with lock mass correction. Analytes were identified by their accurate mass and retention time data for a known standard dissolved in used buffer (for the chemicals of the same nominal masses). These standards were either synthesized and their structures confirmed by nuclear magnetic resonance (NMR) (for ppGp, pGpp, and pGp) or purchased (ppGpp was purchased from Jena Biocsience and GTP from Sigma-Aldrich).

[17] = target: T4, NudG (Escherichia coli, UniProt P77788); assay: In vitro cleavage assay (TLC), NudG; assay type: biochemical, E. coli; conditions: purified NudG, buffer B with 10 mM MgCl2, TLC
T4 construct: expressed in transfected cells; host or cells: E. coli ASKA collection strain, IPTG-induced, whole-cell lysate
Experimental: as §1, §3

[18] = target: PhoA (Escherichia coli, UniProt P00634); assay: Cleavage of (p)ppGpp by PhoA; assay type: biochemical, E. coli
From the text: (§4) Supplement mbo001183765st1.docx, table 1: Table S1. List of proteins that bind or cleave (p)ppGpp. | column: Binding (Kd or otherwise stated in µM) or cleavage of (p)ppGpp in E. coli

[19] = target: T5, UshA (Escherichia coli, UniProt P07024); assay: Cleavage of (p)ppGpp by UshA; assay type: biochemical, E. coli
T5 sequence (P07024 26-550): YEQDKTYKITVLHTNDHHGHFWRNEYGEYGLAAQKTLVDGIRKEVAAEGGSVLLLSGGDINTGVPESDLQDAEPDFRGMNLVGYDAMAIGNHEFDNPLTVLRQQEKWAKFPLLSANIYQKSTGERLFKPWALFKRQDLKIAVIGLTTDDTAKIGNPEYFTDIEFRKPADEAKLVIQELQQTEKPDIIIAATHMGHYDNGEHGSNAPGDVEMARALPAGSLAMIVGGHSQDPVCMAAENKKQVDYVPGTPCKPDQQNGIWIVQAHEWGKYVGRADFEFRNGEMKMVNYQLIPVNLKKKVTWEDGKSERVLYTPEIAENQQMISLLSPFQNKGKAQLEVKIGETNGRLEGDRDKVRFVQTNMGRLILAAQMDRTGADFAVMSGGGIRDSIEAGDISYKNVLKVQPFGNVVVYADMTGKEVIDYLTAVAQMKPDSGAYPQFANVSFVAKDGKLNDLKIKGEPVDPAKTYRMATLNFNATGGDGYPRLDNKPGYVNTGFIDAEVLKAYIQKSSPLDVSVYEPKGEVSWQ
From the text: as §4

[20] = target: NadR (Escherichia coli, UniProt P27278); assay: In vitro cleavage assay (TLC), NadR; assay type: biochemical, E. coli; conditions: 10-20 µM NadR, buffer B with 100 mM NaCl, 10 min
Experimental: The purified His6-MutT and His6-NudG proteins were tested for their relative levels of cleavage of ppGpp compared to those seen with their native substrates. For this, a 1 μM concentration of each protein and a 10 nM concentration of [α-^32P]ppGpp were used together with 100 μM concentrations of cold competitors [ppGpp, GTP, ATP, 8-oxo-(d)GTP, 2-hydroxyl-(d)ATP] or 50 mM EDTA in buffer B. The samples were incubated at 30°C for 10 min and for 1 h before the reactions were stopped by adding 50 mM EDTA. The cleavage products were resolved by TLC as described above. The purified His6-NadR and His6-TrmE proteins were tested for their cleavage of both GTP and ppGpp. […]
as §2, with “afterward.” for “afterward. All samples and buffers were stored at −80°C, thawed on ice, and kept at 4°C during analysis. For the analysis, a UPLC-quadrupole time of flight (UPLC-qTOF) method (Waters) was used.”

[21] = target: GuaB; design: method as in ref 29, 31, 47 (Table S1 ref 5); conditions: 47 (Table S1 ref 5); cited from earlier work

T3 sequence (P0A7D4 whole entry): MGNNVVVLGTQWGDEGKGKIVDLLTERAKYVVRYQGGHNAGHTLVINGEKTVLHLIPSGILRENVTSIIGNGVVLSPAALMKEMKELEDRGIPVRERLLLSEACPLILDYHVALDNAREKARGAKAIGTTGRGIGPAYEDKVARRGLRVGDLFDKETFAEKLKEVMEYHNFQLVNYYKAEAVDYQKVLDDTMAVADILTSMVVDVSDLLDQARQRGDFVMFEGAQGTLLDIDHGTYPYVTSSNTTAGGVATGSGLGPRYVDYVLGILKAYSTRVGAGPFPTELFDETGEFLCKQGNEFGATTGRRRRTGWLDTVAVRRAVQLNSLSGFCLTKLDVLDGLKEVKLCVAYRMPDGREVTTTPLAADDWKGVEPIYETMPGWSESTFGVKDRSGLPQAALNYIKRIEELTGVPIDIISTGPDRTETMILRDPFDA
T1 sequence (P0ADR8 whole entry): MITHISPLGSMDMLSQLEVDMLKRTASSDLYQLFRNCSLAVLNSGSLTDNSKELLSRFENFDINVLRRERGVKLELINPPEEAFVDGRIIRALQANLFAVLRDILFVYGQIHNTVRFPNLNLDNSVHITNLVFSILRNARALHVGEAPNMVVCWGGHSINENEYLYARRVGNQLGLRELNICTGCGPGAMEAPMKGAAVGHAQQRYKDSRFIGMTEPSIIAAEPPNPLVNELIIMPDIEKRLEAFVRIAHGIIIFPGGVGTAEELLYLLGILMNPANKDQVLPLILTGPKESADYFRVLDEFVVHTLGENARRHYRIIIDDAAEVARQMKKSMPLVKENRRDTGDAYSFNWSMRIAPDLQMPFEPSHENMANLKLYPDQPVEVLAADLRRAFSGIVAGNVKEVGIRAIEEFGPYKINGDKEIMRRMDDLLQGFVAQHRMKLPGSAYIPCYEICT
T2 sequence (P69503 whole entry): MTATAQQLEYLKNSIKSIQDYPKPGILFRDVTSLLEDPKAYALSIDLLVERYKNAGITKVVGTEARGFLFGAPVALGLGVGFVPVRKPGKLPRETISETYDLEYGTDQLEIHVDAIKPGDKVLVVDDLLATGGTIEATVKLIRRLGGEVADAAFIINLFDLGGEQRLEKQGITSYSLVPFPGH
Chain of NadR (P27278 whole entry): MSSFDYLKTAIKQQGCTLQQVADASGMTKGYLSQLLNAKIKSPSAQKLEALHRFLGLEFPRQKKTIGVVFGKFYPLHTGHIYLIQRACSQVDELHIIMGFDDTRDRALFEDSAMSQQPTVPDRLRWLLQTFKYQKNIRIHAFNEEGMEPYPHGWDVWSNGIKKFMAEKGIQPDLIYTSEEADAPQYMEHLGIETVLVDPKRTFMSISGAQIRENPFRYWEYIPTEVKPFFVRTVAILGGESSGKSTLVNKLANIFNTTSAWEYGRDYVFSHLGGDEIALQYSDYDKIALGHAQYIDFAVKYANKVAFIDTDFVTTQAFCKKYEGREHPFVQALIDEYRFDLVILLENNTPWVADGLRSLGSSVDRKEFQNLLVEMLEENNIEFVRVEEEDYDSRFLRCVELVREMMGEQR
Chain of TrmE (P25522 whole entry): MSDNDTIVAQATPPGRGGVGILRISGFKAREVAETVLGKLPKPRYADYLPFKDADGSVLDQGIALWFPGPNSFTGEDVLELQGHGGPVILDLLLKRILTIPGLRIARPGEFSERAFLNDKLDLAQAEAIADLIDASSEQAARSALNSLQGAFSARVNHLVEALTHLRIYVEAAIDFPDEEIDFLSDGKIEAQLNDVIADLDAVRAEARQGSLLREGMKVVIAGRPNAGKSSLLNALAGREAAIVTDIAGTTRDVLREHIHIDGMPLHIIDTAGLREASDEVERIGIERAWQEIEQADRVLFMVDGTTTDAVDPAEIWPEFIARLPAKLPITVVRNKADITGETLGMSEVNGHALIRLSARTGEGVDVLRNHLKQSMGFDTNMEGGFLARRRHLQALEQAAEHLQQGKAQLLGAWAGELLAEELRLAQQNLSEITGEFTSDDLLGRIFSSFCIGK
Chain of PhoA (P00634 22-471): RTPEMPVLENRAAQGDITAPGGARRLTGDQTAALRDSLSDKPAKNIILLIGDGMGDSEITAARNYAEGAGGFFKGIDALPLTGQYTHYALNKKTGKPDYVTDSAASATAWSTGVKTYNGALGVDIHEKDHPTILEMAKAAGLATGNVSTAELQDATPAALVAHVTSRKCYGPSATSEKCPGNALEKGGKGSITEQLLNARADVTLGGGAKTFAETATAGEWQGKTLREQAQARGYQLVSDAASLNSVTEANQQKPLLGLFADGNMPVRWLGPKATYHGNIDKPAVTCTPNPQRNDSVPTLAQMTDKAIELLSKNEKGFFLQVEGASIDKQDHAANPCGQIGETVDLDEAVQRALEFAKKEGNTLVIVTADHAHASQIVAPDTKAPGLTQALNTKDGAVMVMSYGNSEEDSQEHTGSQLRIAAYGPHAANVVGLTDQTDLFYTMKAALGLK
Chain of MutT (P08337 whole entry): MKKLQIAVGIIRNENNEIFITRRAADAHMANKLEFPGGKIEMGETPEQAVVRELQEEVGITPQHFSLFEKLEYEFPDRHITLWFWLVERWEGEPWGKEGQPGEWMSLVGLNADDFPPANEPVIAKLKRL
Chain of Gpt (P0A9M5 whole entry): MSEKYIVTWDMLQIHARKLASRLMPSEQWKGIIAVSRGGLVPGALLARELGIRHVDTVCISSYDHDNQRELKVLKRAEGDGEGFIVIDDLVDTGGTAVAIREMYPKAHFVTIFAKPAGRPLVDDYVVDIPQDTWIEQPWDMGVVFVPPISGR
Chain of Hpt (P0A9M2 whole entry): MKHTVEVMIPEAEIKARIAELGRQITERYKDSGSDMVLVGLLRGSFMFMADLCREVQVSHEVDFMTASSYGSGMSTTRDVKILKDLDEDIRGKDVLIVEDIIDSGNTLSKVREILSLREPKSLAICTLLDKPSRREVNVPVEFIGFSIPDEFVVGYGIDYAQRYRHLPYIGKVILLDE
T4 sequence (P77788 whole entry): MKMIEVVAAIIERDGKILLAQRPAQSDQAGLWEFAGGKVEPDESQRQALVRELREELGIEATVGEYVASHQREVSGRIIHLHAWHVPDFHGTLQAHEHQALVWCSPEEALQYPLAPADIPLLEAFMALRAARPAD

(p)ppGpp
competition for bound [α-32P]ppGpp on Gpt [1]: partially outcompete | IC50 [2]: 200 µM | IC50 [3]: 15 µM | competition for (p)ppGpp binding to YgdH [4]: could outcompete | effect on RelA activity [5]: Synthesis of and stimulated by (p)ppGpp; (16) | binding to purified YgdH [6]: not able to significantly bind | degradation by YgdH [7]: not degraded | binding to Apt [8]: no significant binding | IC50 [9]: 500 µM | Ki ([10]; ref Table S1 (5)): 140 µM | Ki ([10]; ref Table S1 (6)): 50 µM | cleavage by TrmE [11]: some degradation; also recorded: Cleavage of (p)ppGpp into ppGp/pGpp | competition for bound [α-32P]ppGpp on Hpt [12]: partially outcompete | Ki ([13]; ref Table S1 (21)): 36 µM | Ki ([13]; ref Table S1 (22)): 130 µM | binding to PurA [14]: no specific binding; also recorded: does not significantly bind | IC50 [15]: 1500 µM | cleavage by MutT [16]: Cleavage of (p)ppGpp into pGp | cleavage by NudG [17]: Cleavage of (p)ppGpp into pGp | cleavage by PhoA [18]: Non-specific cleavage of (p)ppGpp into (p)pi | cleavage by UshA [19]: Non-specific cleavage of (p)ppGpp into (p)pi | cleavage by NadR [20]: some degradation; also recorded: Cleavage of (p)ppGpp into ppGp/pGpp | Ki [21]: 30 to 50 µM

Source: paper PMC5845004, “Novel (p)ppGpp Binding and Metabolizing Proteins of Escherichia coli” (mBio, 2018)
